Results taken from patent publication US20110191867A1.

System: serum antibodies of test subjects

In the case of “Biotin-aminocaproyl-CRSKVNGQCG-NH4 [Peptide 2C]”, the serum reactions is reported as “Strongest reactivities”.
